Assay results: patent US12083084B2, “Method for enhancing energy production and metabolism in cells” (REPLICON HEALTH OY, priority 2013, dated 2024)
Marks after values point to notes of the source that are not given here.

Experiments:
[1] = cited from earlier work
[2] = system: ethanol-dosed gastric cells; details: in vitro; cited from earlier work
[3] = system: Mitochondria of Primary Rat Cortical Neurons; assay: Mitochondrial Ca2+-uptake in rat cortical neurons (fluorescent imaging); type: cell-based; details: 50 ug/ml for 24 h, N = 3
Experimental: Fluorescent imaging. Imaging experiments were performed at 7 DIV. The cells were loaded with fluorescent dyes (fura4F, fura-ff and rhodamine 123) in cell culture medium at 37° C. 1 h, 5 μM for each dye. Then cells were washed with Mg^2+-free Locke's buffer containing 1.3 mM Ca^2+, moved to the microscope stage, and imaging was performed at room temperature. […] For delayed calcium deregulation experiments a lower affinity Ca^2+-indicator FuraFF (Kd 5.5 μM) was used to avoid a saturation of the signal.
In this study a zero control and one DGAcs group of primary rat cortical neurons was cultivated normally without DGAcs until 6 DIV, and then the DGAcs group was treated with 50 μg/ml DGAcs for 24 hours. After that culture medium was replaced by Mg^2+-free Locke's buffer containing 50 μg/ml DGAcs and imaging experiments were performed at room temperature at 7 DIV.
50 μM NMDA in the presence of 10 μM glycin in Mg^2+-free buffer was used to stimulate the cells.
For complete mitochondrial depolarization and release of Ca^2+ accumulated in mitochondria 2 μM protonophore FCCP was used in the presence of NMDA-receptors inhibitor MK801 (2 μM).

[4] = 3 week ad libitum feeding study, food intake and body weight; type: in vivo, rat
Experimental: In this in vivo experiment 45 rats (24 males and 21 females) were tested in Finnish National Institute of Health. Used DGAcs doses were high compared to human trials ranging between 100-1000 mg/kg/day, but on the other hand the metabolism of rats is much faster than in humans and thus the effective doses for rats can be clearly higher than for humans. In some experiments even 20-50 times higher compared to humans in vivo have been reported in literature. Thus this experiment can give indication also for human use. The animals were kept under controlled conditions, with the temperature set from 20° C. to 21° C., the humidity at 47.6%, and a 12-hour light-dark cycle (lights on at 6:00 am). In this ad libitum feeding study the DGAcs was mixed in the diet for the whole experimental period (3 weeks). The animals were divided into 4 groups, which received 0 (zero control), 2, 10, and 20 g glycerate per kilogram of diet. The average DGAcs consumption was 0.1, 0.5, and 1.0 g/kg per day, respectively, as calculated based on weekly food consumption. The animals experimented were 3 to 5 months old AA rats. The animals were given water and a standard laboratory feed (SDS RM1) ad libitum for 3 weeks. In the experiment the development of weights of rats receiving DGAcs, and the control were measured, as well as the food consumption during the experiment and change in the body weight. Males and females were separated resulting altogether to 8 groups with 5-6 animals in each.

[5] = Hepatic free glycerol after 3 week feeding; type: in vivo, rat
Text: From the above experiment altogether 12 rats were chosen from 0.1 g/kg/day DGAcs group (N=6) and zero control (N=6) for a measurement of free glycerol from liver samples. Liver samples contained also blood entering the liver from other tissues, thus on top of hepatic tissues the samples reflect also the metabolic situation in other tissues of the body than just the liver.
(§1) In this experiment nutrition intake, except of course for DGAcs, was controlled to be exactly the same during the experimental day, and three day before the experiment. For AA rats, that are used to alcohol but didn't receive any alcohol in 3 day before the experiment, catabolic redox-activity in the cytosol was controlled by giving rats ethanol (equaling 1.2 per mille blood alcohol concentration, which represents only mild alcohol intoxication to the AA rats). The rate of ethanol oxidation remained the same in all groups.
(§2) Experimental session started at 8:00 to 9:00 am. To diminish possible pain during the experiments, all animals were injected subcutaneously with buprenorphine (0.01 mg/kg) a few minutes before the blood samples. During the experimental session no difference in other metabolic activity, e.g. rate of ethanol oxidation, between the control and treatment group was detected from blood samples. Immediately after the last blood sample, the animals were anesthetized with pentobarbital (40 mg/kg IP, 1% [wt/vol] in saline). Thereafter (5-10 minutes), liver pieces were quickly (within 2-4 seconds) excised and freeze-clamped. Liver samples were stored at 718 C until glycerol determination. […] The resulting supernatants were used for free glycerol measurement with an enzymatic end point commercial assay kit (Boehringer-Mannheim, R-Biopharm, Darmstadt, Germany) according to the manufacturer's protocol except that the assays were modified for use with small volumes of supernatant using a 96-well microplate reader (Labsystems Multiskan RS, Helsinki, Finland). […]

[6] = Rate of ethanol oxidation in rats; type: in vivo, rat; details: AA rats given ethanol (1.2 per mille), not statistically significant
Text: as §1
as §2, with “samples.” for “samples. Immediately after the last blood sample, the animals were anesthetized with pentobarbital (40 mg/kg IP, 1% [wt/vol] in saline). Thereafter (5-10 minutes), liver pieces were quickly (within 2-4 seconds) excised and freeze-clamped. Liver samples were stored at 718 C until glycerol determination.”

Structure (SMILES) | solubility [1] | viability of ethanol-dosed gastric cells [2] | Average Ca release, FCCP ([3]; 2 μM FCCP + MK801 (complete mitochondrial depolarization)) | Average Ca release, peak NMDA ([3]; 50 μM NMDA) | Average Ca release, baseline Ca [3] | increase in food intake ([4]; DGAcs groups, males and females) | average weight change compared to control ([4]; female rats, 3 weeks) | average weight increasing compared to control ([4]; female rats, 3 weeks) [grams] | food intake higher compared to the control ([4]; female rats, DGAcs groups combined, 3 weeks) [%] | food intake higher compared to the control ([4]; male rats, DGAcs groups combined (0.1, 0.5, 1.0 g/kg per day), 3 weeks) [%] | amount of unexplained energy consumption ([4]; males) | glycerol levels increased compared to the control ([5]; 0.1 g/kg group) [%] | increase in the concentration of free glycerol compared to the control samples ([5]; 0.1 g/kg group) | Free glycerol concentration (hepatic, including extracellular matrix) ([5]; 0.1 g/kg per day in diet for 3 weeks, AA rats, n = 6, no acute dose) | rate of ethanol oxidation, maximum acceleration compared to control [6] [%]
O=C(O)[C@H](O)CO [DGA, D-glyceric acid] | readily soluble in water and alcohol | increase viability | – | – | – | – | – | – | – | – | – | – | – | – | –
O.O.O=C([O-])[C@H](O)CO.O=C([O-])[C@H](O)CO.[Ca+2] [DGAcs, D-glyceric acid, calcium salt dehydrate] | – | – | 0.475 *) | 0.219 | 0.070 | 2.5-4% | +0.2% | 0.6 | 2.5 | 3.7 | roughly 5% | 59 | roughly 0.17 g/kg | 4.88 +/− 1.21 (6) * Micromoles Per Gram Wet Weight Tissue | ~3.6
